The record followed here is patent US20070299114A1, “Biaryl Derivatives” (Shionogi & Co., Ltd., priority 2004, published 2007).

What is called IC50 is the concentration needed to halve the response being measured. High values mean weaker potency in that assay, low ones greater potency in that assay.

T1 sequence (Q02127 whole entry): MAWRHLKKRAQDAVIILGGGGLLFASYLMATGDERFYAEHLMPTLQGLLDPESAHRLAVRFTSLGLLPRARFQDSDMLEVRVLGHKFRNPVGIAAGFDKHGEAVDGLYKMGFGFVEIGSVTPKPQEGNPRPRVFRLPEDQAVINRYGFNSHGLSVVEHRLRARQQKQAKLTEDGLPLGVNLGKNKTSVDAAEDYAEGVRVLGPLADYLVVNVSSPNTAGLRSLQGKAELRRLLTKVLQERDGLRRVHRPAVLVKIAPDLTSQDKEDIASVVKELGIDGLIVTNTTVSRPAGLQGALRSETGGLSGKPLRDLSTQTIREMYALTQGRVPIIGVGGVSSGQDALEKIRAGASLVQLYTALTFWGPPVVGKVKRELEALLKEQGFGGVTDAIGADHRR

This experiment concerns the target T1, dihydrooroate dehydrogenase (Homo sapiens, UniProt Q02127).
T1 construct: ultracentrifugation at 4° C. and 120,000×g for 60 minutes afforded a mitochondrial/microsomal fraction; endogenous in cells; host or cells: U-937 (human histiocytic lymphoma cell line), mitochondrial/microsomal fraction
In words: dihydroorotate dehydrogenase inhibition, U-937 mitochondrial/microsomal fraction, DCIP absorbance at 620 nm. The class given is biochemical. Conditions: DHODH of human U-937 cell mitochondrial/microsomal fraction; 37° C., 120 minutes. On the procedure: Method of Testing dihydrooroate dehydrogenase Inhibition
Human U-937 cell (human histiocytic lymphoma cell line) was sonicated in a homogenizing buffer (20 mM Tris-HC1, pH 7.4, containing 2 mM EDTA and protease inhibitor cocktail), and this was centrifuged at 4° C. and 1,200×g for 15 minutes to remove cell debris. Further, ultracentrifugation at 4° C. and 120,000×g for 60 minutes afforded a mitochondrial/microsomal fraction. The resulting fraction was quantitated for a protein, and prepared to 10 mg/ml, which was freezing-stored in a −40° C. in a refrigerator until measurement. To 150 μl of the reaction solution (50 mM Tris-HC1, pH 7.4, containing 0.1% Triton X-100, 1 mM KCN, 100 μM coenzyme Q10, 200 μM DCIP), were added 10 μl of a dilution series of the compound and 0.2 mg of a mitochondrial/microsomal fraction, followed by pre-incubation at 37° C. for 30 minutes. Then, 20 μl of a 5 mM DHO solution (final concentration […]), which is a substrate, was added, this was incubated at 37° C. for 120 minutes, and an absorbance at a measurement wavelength of 620 nm was measured. A rate of suppression of a compound at each concentration relative to a change in an absorbance due to the enzyme reaction was obtained, and a concentration indicating 50% inhibition (IC50 value) was calculated to assess the inhibition activity of the compound.
On to `COc1cc(-c2ccc(NC(C)C)cc2F)c(OC)cc1/C=C(\C)C(=O)NC1CC1` [Compound 24], for which the IC50 was 7.52 nM.
Take `COc1cc(-c2ccc(NCc3ccco3)cc2F)c(OC)cc1/C=C(\C)C(=O)NC(C)C` [Compound 27]: the half-inhibitory concentration (IC50) is 7.73 nM.
For `COc1cc(-c2ccc(NCc3ccco3)cc2F)c(OC)cc1/C=C(\C)C(=O)NC1CC1` [Compound 28], inhibition was half-maximal at 7.33 nM (IC50). This IC50 and that of the molecule before are within 1.5-fold of each other.
Molecule `COc1cc(-c2ccc(NCc3ccco3)cc2F)c(OC)cc1/C=C(/F)C(=O)NC1CC1` [Compound 41] had an IC50 of 8.14 nM. This IC50 and that of the molecule before are within 1.5-fold of each other.
`COc1cc(-c2ccc(NCc3ccco3)cc2F)c(OC)cc1/C=C(/F)C(=O)NC(C)C` [Compound 42] had an IC50 of 10.1 nM.
As for `CC(C)=CCNc1ccc(-c2cc(C)c(/C=C(\C)C(=O)NC(C)C)cc2C)c(F)c1` [Compound 116], the figure is 3.67 nM.
For `C/C(=C\c1cc(C)c(-c2ccc(NC(C)C)cc2F)cc1C)C(=O)NC1CC1` [Compound 154] the value was 7.88 nM; for `C/C(=C\c1cc(C)c(-c2ccc(NCc3ccco3)cc2F)cc1C)C(=O)NC(C)C` [Compound 158], 7.13 nM.
For `CC/C(=C\c1cc(C)c(-c2ccc(NC(C)C)cc2F)cc1C)C(=O)NC1CC1` [Compound 165] the value was 10.1 nM.
In turn, `CC/C(=C\c1cc(C)c(-c2ccc(NC3CCCC3)cc2F)cc1C)C(=O)NC1CC1` [Compound 173] had an IC50 of 7.13 nM.
With `Cc1cc(-c2cc(O)c3[nH]ccc3c2)c(C)cc1/C=C(\Cl)C(=O)NC(C)C` [Compound 267], 7.31 nM corresponded to half-maximal inhibition (IC50).
As for `Cc1cc(-c2cc(O)c3[nH]ccc3c2)c(C)cc1/C=C(\Cl)C(=O)NC1CC1` [Compound 268], 5.78 nM corresponded to half-maximal inhibition (IC50). The IC50 values of the last two molecules are within 1.5-fold of each other.
In turn, `C/C(=C\c1cc(C)c(-c2cccc3[nH]ccc23)cc1C)C(=O)NC1CC1` [Compound 281] gave a half-maximal inhibitory concentration (IC50) of 5.23 nM. This IC50 and that of the molecule before are within 1.5-fold of each other.
Take `CO/C(=C\c1cc(C)c(-c2ccc(NC(C)C)cc2F)cc1C)C(=O)NC(C)C` [Compound 292]: the concentration for half-maximal inhibition (IC50) is 2.76 nM. Compared with the last molecule, the IC50 is about 1.9-fold lower.
On to `Cc1cc(-c2ccc3[nH]ccc3c2)c(C)cc1/C=C(\Cl)C(=O)N[C@H](C)C(=O)O` [Compound 299], for which the IC50 was 9.57 nM.
For `CC/C(=C\c1cc(C)c(-c2ccc(NCc3ccco3)cc2)cc1C)C(=O)NC1CCCC1` [Compound 309] the value was 4.07 nM; for `CC/C(=C\c1cc(C)c(-c2ccc(NC3CCCC3)cc2)cc1C)C(=O)NC1CCCC1` [Compound 313], 11.1 nM; for `CC/C(=C\c1cc(C)c(-c2ccc(NC(C)C)cc2F)cc1C)C(=O)NC1CCCC1` [Compound 321], 6.39 nM.
The molecule `CC/C(=C\c1cc(C)c(-c2ccc(NC3CCCC3)cc2F)cc1C)C(=O)NC1CCCC1` [Compound 324] showed an IC50 of 4.68 nM.
`CC/C(=C\c1cc(C)c(-c2ccc(NC3CCCC3)cc2F)cc1C)C(=O)NC1CCCCC1` [Compound 325] had an IC50 of 10.2 nM.
For the molecule `C/C(=C\c1cc(C)c(-c2ccc(NCc3ccco3)cc2F)cc1C)C(=O)NC1CCCC1` [Compound 334], the midpoint of inhibition, the IC50, lay at 2.46 nM.
`COC(=O)[C@@H](C)NC(=O)/C(C)=C/c1cc(C)c(-c2ccc(NC(C)C)cc2F)cc1C` [Compound 348] showed a half-inhibitory concentration (IC50) of 6.1 nM.
For `C/C(=C\c1cc(C)c(-c2ccc(NC(C)C)cc2F)cc1C)C(=O)N[C@H](C)C(=O)O` [Compound 349] the value was 8.97 nM; for `C/C(=C\c1cc(C)c(-c2ccc3[nH]c(C)cc3c2)cc1C)C(=O)NC(C)C` [Compound 383], 13.6 nM; for `C/C(=C\c1cc(C)c(-c2ccc(NC3CCCC3)cc2)cc1C)C(=O)NC(C)(C)C` [Compound 414], 8.84 nM.
As to `C/C(=C\c1c(C)c(C)c(-c2ccc(NC(C)C)cc2)c(C)c1C)C(=O)NC(C)C` [Compound 415], the IC50 was 6.11 nM. This IC50 and that of the molecule before are within 1.5-fold of each other.
`C/C(=C\c1c(C)c(C)c(-c2ccc(NC3CCCC3)cc2)c(C)c1C)C(=O)NC(C)C` [Compound 416] gave an IC50 of 2.63 nM.
In turn, `C/C(=C\c1c(C)c(C)c(-c2ccc3[nH]ccc3c2)c(C)c1C)C(=O)NC1CC1` [Compound 417] gave an IC50 of 6.71 nM.
